Experiments:
[1] = tested on: hypertensive and nonhypertensive stroke patients; settings: cited from earlier work
[2] = tested on: hypertensive patients after cerebral ischemia, transitory ischemic attack or intracerebral hemorrhage; test: Prospective, randomized clinical study (PROBE design) of eprosartan versus nitrendipine for prevention of subsequent strokes, interim report; assay type: in vivo, human; settings: for incidence of subsequent cerebrovascular events / number of subsequent cerebrovascular events: interim report, 179 patients eprosartan group, 158 patients nitrendipine group, average observation period 18.4 / 18.3 months; for number of subsequent cerebrovascular events: start 600 mg eprosartan once daily or 10 mg nitrendipine q.d.
Description: A clinical study is currently being conducted on 1369 patients, investigating the suitability of antihypertensive agents of various pharmacological classes to reduce a patient's risk of suffering a subsequent stroke.
Of the 1369 patients (male/female), 691 patients received the AT1-receptor antagonist eprosartan (as eprosartan mesylate); 678 of the 1369 patients received the calcium antagonist nitrendipine.
The study is being conducted as a prospective, randomized, controlled and multicentric study and corresponds to the PROBE design (=prospective, randomized, open-blinded endpoint). The primary target criterion is the evaluation of the total mortality and the total number of cardiovascular and cerebrovascular events (strokes) in the sense of this invention.
The subsequent efficacy parameter is the change in mental abilities (evaluated on the basis of neurological findings, Barthel index and Rankin scale). In addition, the change in the average blood pressure over a period of time is evaluated in measurements performed on the patients sitting down in the office as well as in ambulatory 24-hour blood pressure measurements.
The study begins within 24 months after the occurrence of cerebral ischemia or an intracerebral hemorrhage in a patient. The patients are observed for up to four years. The essential prerequisite for including a patient in the study is hypertension requiring treatment and the condition following a cerebral ischemia, a transitory ischemic attack or an intracerebral hemorrhage within the last 24 months. Essential exclusion criteria include an occlusion or stenosis of greater than 70% of the internal carotid artery (ICA), manifest cardiac insufficiency (NYHY [sic; NYHA] class III-IV), age of patient greater than 85 years at the time of the cerebrovascular event, anticoagulant therapy for a patient because of cardiac arrhythmia, high-grade aortic or mitral valve stenosis, unstable angina pectoris or a known hypersensitivity to AT1-receptor antagonists or calcium antagonists of the dihyropyridine type or chemically related substances.
After inclusion in the study, the patients begin the randomized treatment phase with eprosartan or nitrendipine. Depending on the blood pressure readings and patient-specific criteria, treatment begins with 600 mg eprosartan once daily or 10 mg nitrendipine q.d. For long-term therapy, a diastolic blood pressure of less than 90 mmHg sitting down and a systolic blood pressure of less than 140 mmHg are the goals. For the 24-hour blood pressure measurements, a daily average of less than or equal to 135/85 mmHg is the goal. If additional antihypertensive therapy is necessary, conventional recognized criteria such as those recommended by the German Hypertension League are followed in the combination therapy. Combination therapy with ACE inhibitors, AT1-receptor antagonists or calcium antagonists should not be used.
Study end points (target criteria) are transmitted immediately to the central study office, where they are treated as open-blind results with respect to the medication and then forwarded to the End Point Committee. The committee performs the evaluation and classification of the findings with regard to a cardiovascular or cerebrovascular end point.
In an interim report on this study, the data on a total of 337 of the participating patients has been evaluated; 179 of these 337 patients received eprosartan (eprosartan group) and 158 of these 337 patients received nitrendipine (nitrendipine group). […]

| Compound | blood pressure of patients ([1]; hypertensive group) | risk of suffering a subsequent stroke ([1]; subgroup of hypertensive patients, versus placebo patient group) | incidence of subsequent cerebrovascular events [2] [%] | number of subsequent cerebrovascular events [2] | reduction in a patient's risk of having a subsequent stroke ([2]; monotherapy, conclusion from the interim clinical findings) |
| --- | --- | --- | --- | --- | --- |
| CCC[C@H](N[C@@H](C)C(=O)N1[C@H](C(=O)O)C[C@@H]2CCCC[C@@H]21)C(=O)OCC [ACE monotherapy, perindopril] | lowered to a comparable extent | did not differ from the corresponding risk in the placebo patient group |  |  |  |
| CCCCc1ncc(/C=C(\Cc2cccs2)C(=O)O)n1Cc1ccc(C(=O)O)cc1.CS(=O)(=O)O [eprosartan, (E)-α-[[2-butyl-1-[(4-carboxyphenyl)methyl]-1H-imidazol-5-yl]-methylene]-2-thiophenepropanoic acid monomethanesulfonate] |  |  | 8.4 | 15 | significant reduction |
| CCOC(=O)C1=C(C)NC(C)=C(C(=O)OC)C1c1cccc([N+](=O)[O-])c1 (stereo not shown) [nitrendipine] |  |  | 13.9 | 22 |  |

— patent US20040138278A1, “Use of AT1 receptor antagonists for prevention of subsequent strokes” (Solvay Pharmaceuticals GmbH, priority 2002, published 2004)
